Results taken from patent US10662225B2, “Backbone cyclized inhibitory peptides of myeloid differentiation factor 88 (MyD88)” (Yissum Research Development Company of the Hebrew …, priority 2016, dated 2020).
Numbered stars: 1 amine (or outer) side, 2 acyl side, 3 side chain; on linkers, the order of the positions; unused ones are H or OH. Bridge positions count the residues as written; N and C are the ends. Square brackets hold non-standard residues; d marks the D form. Peptide text beside a SMILES is read from it. CO = O=C([*:1])[*:2]; Nlys = NCCCCNCC(=O)O

What was measured:
[1] = test system: MyD88-dependent signaling; experiment: Library screen: TNFα production by U937 macrophage cells stimulated with PAM3Csk; type: cell-based, human; conditions: PAM3Csk overnight, peptide concentration estimated 2-4 μM
Method: FIG. 4. Screening results of the peptide library of 16 compounds. Human macrophage U937 cells were stimulated with PAM3csk overnight in the absence or presence of each of the cyclic peptides. Human TNFα levels in the supernatants were determined by ELISA. […].
The backbone cyclic library of 16 compounds synthesized in Example 3 was screened for inhibition of MyD88-dependent signaling through innate immune receptors employing the human macrophage cell line U937. […] The concentration of the cyclic peptides in the library was estimated to be 2-4 μM.

[2] = Metabolic stability in plasma with Brush Border Membrane Vesicles (BBMV); type: in vitro ADME; conditions: human; over two hours; read-out: decrease of amount in plasma enriched with BBMV
Method: (§1) FIGS. 17A and 17B. 4×4MyDI is metabolically stable in comparison to the linear MyDI peptide. 4×4MyDI vs. linear MyDI heptapeptide were incubated independently in either human plasma […] or human plasma supplemented with Brush Border Membrane Vesicles (BBMV, 18B). At various time points the solution was sampled and the amount of remaining compound was determined by quantitative HPLC.
(§2) Peptide backbone cyclization confers metabolic stability on peptides that are inherently susceptible to degradation by proteases. […] The stability of the compounds was then tested in plasma enriched with Brush Border Membrane Vesicles (BBMV). This system models the degradative conditions of the intestine.

[3] = test system: NFκB p65 nuclear translocation; experiment: NFκB p65 nuclear translocation in HeLa cells stimulated with TNFα or IL-1β; type: cell-based
Method: FIG. 6. HeLa assay showing specificity of MyD88 inhibition. HeLa cells were stimulated with recombinant TNFα or IL-1β and NFkB localization was determined with anti-p65 conjugated to rhodamine. The percent of cells with nuclear localization was determined and is shown in the bar graphs on the right. 6A: Top row, HeLa cells transduced with control shRNA. Second row, shRNA knock-down of MyD88. 6B: Top row, HeLa cells treated with MyD88 inhibitor linear peptide. Bottom row, HeLa cells treated with scrambled control version of the MyD88 inhibitor linear peptide (SEQ ID NO: 5).
FIG. 7. HeLa assay showing specificity of MyD88 inhibition by 4×4MyDI. HeLa cells were stimulated with recombinant TNFα or IL-1b and NFkB localization was determined with anti-p65 conjugated to rhodamine. The percent of cells with nuclear localization was determined, and is shown in the bar graphs on the right. Top row, HeLa cells with no pre-treatment. Second row, HeLa cells pre-treated for 30 min with the backbone cyclic 4×4MyDI compound.
Lead compounds were further tested in vitro to confirm the specificity of the inhibition. A fluorescence-based in vitro activity assay that determines the degree of activation of the transcription factor NFκB was established. In this assay, cells are treated with either TNFα or IL-1b, both inflammatory cytokines that activate NFκB. Upon activation, the p65 unit of the NFκB transcription factor re-locates from the cytoplasm to the nucleus. Using fluorescently-tagged antibodies to p65, the cytoplasmic vs. nuclear localization of the factor is determined. Importantly, since the signaling of IL-1b, but not TNFα, is dependent on MyD88, this assay can establish the specificity of the inhibition achieved using the lead compounds.
Cells were activated with either IL-1β (the signaling of the IL-1 receptor is dependent on MyD88), or with TNFα (signaling of its receptor is independent of MyD88). The activation was measured by the translocation of NFκB from the cytoplasm to the nucleus. As a positive control, a stable MyD88 knock-down cell line was established using lentiviral encoded shRNA.
Using the same system, when cells were treated with the backbone cyclic peptide 4×4MyDI, activation by IL-1β was blocked, however when treated with TNFα the activation was not inhibited.

NFkB activation = experiment: NFkB-luciferase reporter in RAW 264.7 macrophages stimulated with LPS; type: cell-based, mouse; conditions: RAW 264.7 NFkB-luc, 4 hours
Method: FIG. 13. 4×4MyDI and Myr4×4MyDI block NFkB induction in response to LPS stimulation of RAW 264.7 NFkB-luc cells. RAW 264.7 murine macrophages were transfected with an NFkB-luciferase reporter gene and stimulated with LPS in the absence or presence of increasing concentrations of the inhibitors. After 4 hours cells were lysed and luminescence was recorded using a Tecan plate reader. BG denotes background.
In this assay the mouse macrophage RAW264.7 cell line is transfected with an NFkB-luciferase reporter construct and then cells are stimulated by exposure to bacterial LPS and light emission is measured after addition of luciferase substrate.

MyD88 TIR domain = target: T1, MyD88 TIR domain (Homo sapiens, UniProt Q99836); experiment: Competition assay: binding of biotinylated linear BB loop peptide to MyD88 TIR domain; conditions: different concentrations
T1 construct: made in house
T1 sequence (Q99836 151-296): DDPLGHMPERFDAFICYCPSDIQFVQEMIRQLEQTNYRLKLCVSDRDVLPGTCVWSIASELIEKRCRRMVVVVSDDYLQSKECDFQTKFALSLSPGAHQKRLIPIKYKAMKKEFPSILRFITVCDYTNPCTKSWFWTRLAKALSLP
Method: FIG. 9. 4×4MyDI binds to the BB loop region of the MyD88 TIR domain. A 96 well plate was coated with recombinant MyD88 (8 μg/ml) in coating buffer vs. buffer alone, and wells were blocked with 1% BSA. Biotinylated linear peptide was added to all wells (125 μg/ml) followed by streptavidin-HRP and substrate. The signal of linear peptide bound to its target was inhibited by incubation with the 4×4MyDI (*P<0.05) but not by incubation with the scrambled version of the linear peptide (SEQ ID NO: 5).
The ability of the 4×4MyDI compound to bind to the target region (the BB loop) of the MyD88 TIR domain, was evaluated using a newly-designed assay. For this goal a competition assay was established that tests the ability of the 4×4MyDI compound to prevent the binding of the biotinylated linear BB loop peptide to the MyD88 TIR domain. The MyD88 TIR domain was produced as a recombinant protein fused to the SUMO3 protein (Accession # NP_008867), purified, and attached to a 96 well plate. Binding of biotinylated RDVLPGT (SEQ. ID NO: 1) peptide was detected using streptavidin conjugated to horse radish peroxidase (HRP) followed by the addition of HRP substrate.

[4] = Parallel Artificial Membrane Permeability Assay (PAMPA); type: in vitro ADME; conditions: in comparison to metoprolol
Source text: FIG. 12. Papp of 4×4MyDI in the PAMPA model in comparison to metoprolol.

[5] = Metabolic stability in plasma (quantitative HPLC); type: in vitro ADME, human
Method: as §1, §2

Method for CaCO-2 monolayer: Transport studies are performed through the CaCO-2 monolayer (passage range of 52-60) seeded at density of 25×10^5 cells/cm^2 on untreated culture inserts of polycarbonate membrane with 0.4 μm pores and surface of 1.1 cm^2. The culture inserets containing Caco-2 monolayers were place in 24 transwell plates 12 mm, Costar™. The cells were monitored for their transepithelial electrical resistance (TEER) measurements to assure TEER between 300 and 500 Ω*cm^2. […] HBSS supplemented with 10 mM MES and adjusted to pH 6.5 will be used as transport medium in the donor compartment and pH 7.4 in the acceptor compartment. The donor solution contains the test compound.
The investigation of the permeability of 4×4MyDI through CaCO-2 monolayer includes using two main control groups, Atenolol and Metoprolol that show passive para-cellular and trans-cellular permeability, respectively. The CaCO-2 model allows investigating the mechanism of absorption, so the permeability from apical to basolateral membranes (AB) can be measured to evaluate the total permeability. The permeability from basolateral to apical membranes (BA) can also be measured and compared to AB P apparent (Papp) to determine if the absorption is though passive diffusion, active transporters or if there is involvement of efflux systems.

SMILES: CC(C)C[C@@H]1NC(=O)[C@H](C(C)C)NC(=O)[C@H](CC(=O)O)NC(=O)[C@H](CCCNC(=N)N)NC(=O)CN(C(=O)[C@@H](N)Cc2c[nH]c3ccccc23)CCCCNC(=O)NCCCCN(CC(=O)NCC(=O)N[C@H](C(N)=O)[C@@H](C)O)C1=O [4×4MyDI] (H-W[Nlys]RDVL[Nlys]GT-NH2; linker 2-7 via CO; N-terminus assumed)
- MyD88 inhibitory activity (reduction in TNFα production) [1]: intermediate activity
- metabolised at 2 h [2]: 40%
- Papp AB (apical to basolateral) (CaCO-2 monolayer): higher than metoprolol
- NFκB activation by IL-1β ([3]; HeLa cells, IL-1β): blocked
- Percent p65 nuclear translocation, IL-1β ([3]; HeLa cells, IL-1β (MyD88 dependent)): 27%
- NFκB activation by TNFα ([3]; HeLa cells, TNFα): not inhibited
- Percent p65 nuclear translocation, TNFα ([3]; HeLa cells, TNFα (MyD88 independent)): 97%
- Percent p65 nuclear translocation, No stimulation ([3]; HeLa cells, no stimulation): 0%
- specificity of MyD88 inhibition ([3]; IL-1β versus TNFα): specific inhibitor
- block of NFkB activation (NFkB activation): block NFkB activation in a dose dependent manner
- inhibition of binding of the biotinylated peptide to the MyD88 TIR domain (MyD88 TIR domain): competitively inhibited
- passive diffusion through a lipid layer (Papp PAMPA) [4]: does not diffuse well through a lipid layer
- metabolised at 4 h ([5]; human, human plasma, over the following two hours (hours 2-4), read-out: decrease of amount in plasma): 20%
- stability in plasma ([5]; plasma, 4×4MyDI: first two hours): completely stable
